Molecules are shown by their SMILES.

Our source for the IC50 values is patent publication US20230286970A1, “NOVEL OXADIAZOLE-BASED SELECTIVE HDAC6 INHIBITORS” (ITALFARMACO S.P.A., priority 2020, published 2023).

Assay [1] concerns the target recombinant human HDAC6 (Homo sapiens (Human), UniProt Q9UBN7). The assay is described as follows: Enzymatic screening, HDAC6 inhibition (fluorogenic FdL_G substrate). In kind it is biochemical. In a few lines:
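Enzyme was preincubated with compound (8 doses, triplicate, 1% DMSO) in 25 mM Tris-HCl pH 8, 130 mM NaCl, 0.05% Tween-20, 10% glycerol, with BSA. A FLUOR DE LYS-Green substrate was then added, and fluorescence was read after developer plus 2 μM TSA.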

Assay [2] has as its target recombinant human HDAC1 (Homo sapiens (Human), UniProt Q13547). The assay is described as follows: Enzymatic screening, HDAC1 inhibition (fluorogenic FdL_G substrate). In kind it is biochemical. An outline of the steps: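 Recombinant human HDAC1 inhibition was measured fluorometrically using the FLUOR DE LYS-Green (FdL_G) substrate. Compounds at 8 doses (1% DMSO final) in Tris-HCl pH 8 buffer with NaCl, Tween-20 and glycerol were preincubated in triplicate with enzyme and 1 mg/mL BSA, then given substrate. Developer I plus 2 μM TSA was added, and fluorescence read after 25 minutes in the dark.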

Chain of recombinant human HDAC6 (Q9UBN7 whole entry): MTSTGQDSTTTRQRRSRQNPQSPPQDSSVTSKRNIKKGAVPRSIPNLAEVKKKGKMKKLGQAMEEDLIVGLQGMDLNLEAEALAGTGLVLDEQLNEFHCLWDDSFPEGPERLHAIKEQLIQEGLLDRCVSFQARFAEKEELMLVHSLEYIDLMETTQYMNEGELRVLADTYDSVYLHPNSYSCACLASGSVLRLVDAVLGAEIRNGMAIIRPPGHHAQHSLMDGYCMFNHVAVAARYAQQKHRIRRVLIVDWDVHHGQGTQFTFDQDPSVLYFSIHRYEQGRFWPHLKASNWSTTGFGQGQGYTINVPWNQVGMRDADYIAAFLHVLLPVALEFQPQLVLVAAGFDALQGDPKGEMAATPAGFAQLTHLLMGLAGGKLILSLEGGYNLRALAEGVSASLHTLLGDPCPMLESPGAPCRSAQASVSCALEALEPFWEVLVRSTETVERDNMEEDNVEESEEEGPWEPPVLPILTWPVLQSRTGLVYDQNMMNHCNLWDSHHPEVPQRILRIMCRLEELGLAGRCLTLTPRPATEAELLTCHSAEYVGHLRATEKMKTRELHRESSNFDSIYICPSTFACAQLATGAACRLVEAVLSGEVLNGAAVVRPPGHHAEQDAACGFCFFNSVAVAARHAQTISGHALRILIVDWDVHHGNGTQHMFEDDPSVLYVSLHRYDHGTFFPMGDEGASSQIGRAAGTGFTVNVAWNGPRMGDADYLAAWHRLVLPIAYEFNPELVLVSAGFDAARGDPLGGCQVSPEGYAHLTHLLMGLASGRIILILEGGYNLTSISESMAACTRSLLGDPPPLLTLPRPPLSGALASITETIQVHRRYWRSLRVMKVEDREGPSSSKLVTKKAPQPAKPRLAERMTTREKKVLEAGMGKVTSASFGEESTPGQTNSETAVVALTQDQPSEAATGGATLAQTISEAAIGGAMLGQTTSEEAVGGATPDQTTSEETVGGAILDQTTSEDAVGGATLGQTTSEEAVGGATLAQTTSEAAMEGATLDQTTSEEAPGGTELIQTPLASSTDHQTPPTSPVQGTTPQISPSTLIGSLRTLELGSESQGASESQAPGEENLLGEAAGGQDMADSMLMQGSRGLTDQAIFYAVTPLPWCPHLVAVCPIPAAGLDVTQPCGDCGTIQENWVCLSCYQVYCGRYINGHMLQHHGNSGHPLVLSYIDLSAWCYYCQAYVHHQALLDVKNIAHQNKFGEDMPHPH
Chain of recombinant human HDAC1 (Q13547 whole entry): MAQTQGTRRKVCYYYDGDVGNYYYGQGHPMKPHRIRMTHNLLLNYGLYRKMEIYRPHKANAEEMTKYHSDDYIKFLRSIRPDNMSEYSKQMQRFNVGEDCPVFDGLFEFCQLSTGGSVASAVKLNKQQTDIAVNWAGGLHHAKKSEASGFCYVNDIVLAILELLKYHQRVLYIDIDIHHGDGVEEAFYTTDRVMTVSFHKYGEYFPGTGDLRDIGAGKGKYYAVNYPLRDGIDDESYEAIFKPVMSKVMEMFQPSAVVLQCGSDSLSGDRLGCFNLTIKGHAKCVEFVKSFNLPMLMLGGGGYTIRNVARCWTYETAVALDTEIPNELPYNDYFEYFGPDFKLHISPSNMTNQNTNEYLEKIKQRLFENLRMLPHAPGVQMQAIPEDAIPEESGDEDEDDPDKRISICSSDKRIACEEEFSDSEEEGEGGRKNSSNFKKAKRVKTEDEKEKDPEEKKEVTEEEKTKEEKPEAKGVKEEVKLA

Take `O=C1NCc2ccc(-c3nnn(Cc4ncc(-c5nnc(C(F)F)o5)cn4)n3)cc21` [compound 107, 6-(2-((5-(5-(difluoromethyl)-1,3,4-oxadiazol-2-yl)pyrimidin-2-yl)methyl)-2H-tetrazol-5-yl)isoindolin-1-one]: the values for the IC50 in assay [1] and in assay [2] were 41 nM and more than 200000 nM, respectively.
For the compound `FC(F)c1nnc(-c2ccc(Cn3nnc(-c4cncc(Br)c4)n3)cc2)o1` [compound 82, 2-(4-((5-(5-bromopyridin-3-yl)-2H-tetrazol-2-yl)methyl)phenyl)-5-(difluoromethyl)-1,3,4-oxadiazole], the IC50 in assay [1] was 33 nM; in assay [2], more than 200000 nM.
The matching figures for `CNc1ncc2cc(-c3cn(Cc4ccc(-c5nnc(C(F)F)o5)c(F)c4F)nn3)ccc2n1` [compound 389, 6-[1-({4-[5-(difluoromethyl)-1,3,4-oxadiazol-2-yl]-2,3-difluorophenyl}methyl)-1H-1,2,3-triazol-4-yl]-N-methylquinazolin-2-amine]: 192 nM and 1e+06 nM.
For the compound `Fc1cc(-c2nnc(C(F)F)o2)cc(F)c1Cn1cc(-c2ccc(CN3CC(C(F)(F)F)C3)cc2)nn1` [compound 214, 2-(3,5-difluoro-4-((4-(4-((3-(trifluoromethyl)azetidin-1-yl)methyl)phenyl)-1H-1,2,3-triazol-1-yl)methyl)phenyl)-5-(difluoromethyl)-1,3,4-oxadiazole], the IC50 in assay [1] is 151 nM; in assay [2] it was more than 200000 nM.
On to `O=C(Nc1ccc(-c2cn(Cc3ccc(-c4nnc(C(F)F)o4)cn3)cn2)cn1)C(F)F` [compound 126, N-(5-(1-((5-(5-(difluoromethyl)-1,3,4-oxadiazol-2-yl)pyridin-2-yl)methyl)-1H-imidazol-4-yl)pyridin-2-yl)-2,2-difluoroacetamide], for which the IC50 in assay [1] is 49 nM; in assay [2], more than 200000 nM.
On to `FC(F)c1nnc(-c2ccc(Cn3nnc(-c4cccc(-c5nc6c([nH]5)CNCC6)c4)n3)c(Cl)c2)o1` [compound 365, 2-[3-chloro-4-[[5-[3-(4,5,6,7-tetrahydro-3H-imidazo[4,5-c]pyridin-2-yl)phenyl]tetrazol-2-yl]methyl]phenyl]-5-(difluoromethyl)-1,3,4-oxadiazole], for which the IC50 in assay [1] was 106 nM; in assay [2] it was more than 1e+06 nM.
The matching figures for `CC(=O)N(Cc1ccco1)c1cccc(-c2cn(Cc3c(F)cc(-c4nnc(C(F)F)o4)cc3F)nn2)c1` [compound 183, N-(3-(1-(4-(5-(difluoromethyl)-1,3,4-oxadiazol-2-yl)-2,6-difluorobenzyl)-1H-1,2,3-triazol-4-yl)phenyl)-N-(furan-2-ylmethyl)acetamide]: 93 nM and more than 200000 nM.
For `FC(F)c1nnc(-c2ccc(Cn3nnc(-c4ccco4)n3)cc2)o1` [compound 220, 2-(difluoromethyl)-5-(4-((5-(furan-2-yl)-2H-tetrazol-2-yl)methyl)phenyl)-1,3,4-oxadiazole], the IC50 in assay [1] was 157 nM; in assay [2] it was more than 200000 nM.
As for `O=C1Nc2ccc(-c3cn(Cc4ccc(-c5nnc(C(F)F)o5)cn4)nn3)cc2C12CCCC2` [Compd. 26, 5′-(1-((5-(5-(difluoromethyl)-1,3,4-oxadiazol-2-yl)pyridin-2-yl)methyl)-1H-1,2,3-triazol-4-yl)spiro[cyclopentane-1,3′-indolin]-2′-one], the IC50 in assay [1] is 8 nM; in assay [2], more than 200000 nM.
The matching figures for `Fc1cc(-c2nnc(C(F)F)o2)ccc1Cn1nnc(-c2cccc(-c3nc4c([nH]3)CCNC4)c2)n1` [compound 354, 2-(difluoromethyl)-5-[3-fluoro-4-[[5-[3-(4,5,6,7-tetrahydro-1H-imidazo[4,5-c]pyridin-2-yl)phenyl]tetrazol-2-yl]methyl]phenyl]-1,3,4-oxadiazole]: 25 nM and 183000 nM.
In the case of `Cn1c(=O)[nH]c2cc(-c3nnn(Cc4ccc(-c5nnc(C(F)F)o5)cc4)n3)ccc21` [compound 210, 5-(2-(4-(5-(difluoromethyl)-1,3,4-oxadiazol-2-yl)benzyl)-2H-tetrazol-5-yl)-1-methyl-1,3-dihydro-2H-benzo[d]imidazol-2-one], the half-maximal inhibitory concentration (IC50) in assay [1] was 138 nM; in assay [2], more than 200000 nM.
On to `CN(C)c1nc2cc(-c3nnn(Cc4ccc(-c5nnc(C(F)F)o5)cc4)n3)ccc2o1` [compound 249, 5-(2-(4-(5-(difluoromethyl)-1,3,4-oxadiazol-2-yl)benzyl)-2H-tetrazol-5-yl)-N,N-dimethylbenzo[d]oxazol-2-amine], for which the figures for the IC50 in assay [1] and in assay [2] were 277 nM and more than 200000 nM, respectively.
`Nc1nc2ccc(-c3cn(Cc4ccc(-c5nnc(C(F)F)o5)c(F)c4F)nn3)cc2s1` [compound 341, 6-[1-[[4-[5-(difluoromethyl)-1,3,4-oxadiazol-2-yl]-2,3-difluorophenyl]methyl]triazol-4-yl]-1,3-benzothiazol-2-amine]: the IC50 in assay [1] is 135 nM; in assay [2], more than 1e+06 nM.
In the case of `Cn1c(N)nc2cc(-n3cc(Cc4ccc(-c5nnc(C(F)F)o5)cc4)nn3)ccc21` [compound 414, 5-[4-({4-[5-(difluoromethyl)-1,3,4-oxadiazol-2-yl]phenyl}methyl)-1H-1,2,3-triazol-1-yl]-1-methyl-1H-1,3-benzodiazol-2-amine], the figures for the 50% inhibitory concentration (IC50) in assay [1] and in assay [2] were 461 nM and 1e+06 nM, respectively.
Turning to `COc1ncc(NCc2ccc(-c3cn(Cc4c(F)cc(-c5nnc(C(F)F)o5)cc4F)nn3)cc2)cc1C(N)=O` [Compd. 154, 5-((4-(1-(4-(5-(difluoromethyl)-1,3,4-oxadiazol-2-yl)-2,6-difluorobenzyl)-1H-1,2,3-triazol-4-yl)benzyl)amino)-2-methoxynicotinamide], the IC50 is 67 nM in assay [1] and more than 200000 nM in assay [2].
For the compound `O=C(Nc1cc(-c2nnn(Cc3ccc(-c4nnc(C(F)F)o4)cc3)n2)ccc1Sc1ccccc1)N1CCOCC1` [compound 258, N-(5-(2-(4-(5-(difluoromethyl)-1,3,4-oxadiazol-2-yl)benzyl)-2H-tetrazol-5-yl)-2-(phenylthio)phenyl)morpholine-4-carboxamide], the half-inhibitory concentration (IC50) was 410 nM in assay [1] and more than 200000 nM in assay [2].
Turning to `Cn1c(N)nc2cc(-c3nnn(Cc4ccc(-c5nnc(C(F)F)o5)cc4F)n3)ccc21` [compound 348, 5-[2-[[4-[5-(difluoromethyl)-1,3,4-oxadiazol-2-yl]-2-fluorophenyl]methyl]tetrazol-5-yl]-1-methylbenzimidazol-2-amine], the results for the IC50 in assay [1] and in assay [2] were 26 nM and more than 1e+06 nM, respectively.
Regarding `CCC[C@@H](c1ccc(-c2nnc(C(F)F)o2)cc1)n1cc(-c2cccc(NC(=O)N3CCOCC3)c2)nn1` (stereo in doubt) [compound 205, N-(3-(1-(1-(4-(5-(difluoromethyl)-1,3,4-oxadiazol-2-yl)phenyl)butyl)-1H-1,2,3-triazol-4-yl)phenyl)morpholine-4-carboxamide], the IC50 in assay [1] was 122 nM; in assay [2], more than 200000 nM.
For the compound `Cn1c(N)nc2cc(-c3nnn(Cc4ccc(-c5nnc(C(F)F)o5)c(F)c4)n3)ccc21` [compound 373, 5-[2-[[4-[5-(difluoromethyl)-1,3,4-oxadiazol-2-yl]-3-fluorophenyl]methyl]tetrazol-5-yl]-1-methylbenzimidazol-2-amine], the 50% inhibitory concentration (IC50) is 26 nM in assay [1] and more than 1e+06 nM in assay [2].
As to `Cn1c(N)nc2cc(-c3cn(Cc4ccc(-c5nnc(C(F)F)o5)cc4Cl)nn3)ccc21` [compound 344, 5-[1-[[2-chloro-4-[5-(difluoromethyl)-1,3,4-oxadiazol-2-yl]phenyl]methyl]triazol-4-yl]-1-methylbenzimidazol-2-amine], the IC50 in assay [1] worked out at 47 nM; in assay [2] it was 84400 nM.
In the case of `Nc1nc2cc(-c3nnn(Cc4ccc(-c5nnc(C(F)F)o5)cc4)n3)ccc2o1` [compound 152, 5-(2-(4-(5-(difluoromethyl)-1,3,4-oxadiazol-2-yl)benzyl)-2H-tetrazol-5-yl)benzo[d]oxazol-2-amine], the results for the IC50 in assay [1] and in assay [2] were 65 nM and more than 200000 nM, respectively.
Turning to `FC(F)c1nnc(-c2ccc(Cn3nnc(-c4ccc5cnccc5c4)n3)c(Cl)c2)o1` [compound 426, 2-(3-chloro-4-((5-(isoquinolin-6-yl)-2H-tetrazol-2-yl)methyl)phenyl)-5-(difluoromethyl)-1,3,4-oxadiazole], the figures for the IC50 in assay [1] and in assay [2] were 345 nM and 1e+06 nM, respectively.
The matching figures for `[2H]C([2H])(c1ccc(-c2nnc(C(F)F)o2)cn1)n1cc(-c2ccc(N)nc2)nn1` [compound 362, 5-[1-[dideuterio-[5-[5-(difluoromethyl)-1,3,4-oxadiazol-2-yl]pyridin-2-yl]methyl]triazol-4-yl]pyridin-2-amine]: 18 nM and more than 1e+06 nM.
With `FC(F)c1nnc(-c2cnc(Cn3nnnc3-c3cccs3)nc2)o1` [compound 299, 2-(difluoromethyl)-5-(2-((5-(thiophen-2-yl)-1H-tetrazol-1-yl)methyl)pyrimidin-5-yl)-1,3,4-oxadiazole], the IC50 in assay [1] was 110 nM; in assay [2] it was more than 200000 nM.
With `Nc1nc2ccc(-c3cn(Cc4ccc(-c5nnc(C(F)F)o5)c(F)c4)nn3)cc2s1` [compound 347, 6-[1-[[4-[5-(difluoromethyl)-1,3,4-oxadiazol-2-yl]-3-fluorophenyl]methyl]triazol-4-yl]-1,3-benzothiazol-2-amine], the results for the concentration for half-maximal inhibition (IC50) in assay [1] and in assay [2] were 27 nM and more than 1e+06 nM, respectively.
As to `Cn1c(N)nc2cc(-c3nnn(Cc4ccc(-c5nnc(C(F)F)o5)cc4Cl)n3)ccc21` [compound 374, 5-[2-[[2-chloro-4-[5-(difluoromethyl)-1,3,4-oxadiazol-2-yl]phenyl]methyl]tetrazol-5-yl]-1-methylbenzimidazol-2-amine], the IC50 is 101 nM in assay [1] and more than 1e+06 nM in assay [2].
